Experimental data: US12077503B2, “Substituted cyclic amides and their use as herbicides” (FMC CORPORATION, priority 2015, dated 2024)
Read-outs that look alike come from different tables or passages of the source.

Assays:
Assay in all cases: Test A preemergence
Type in all cases: in vivo
[1] = tested on: ryegrass, Italian (Italian ryegrass, Lolium multiflorum); details: Lolium multiflorum, pre-emergence, 240 h; for pest or weed control at 125 g/ha: 125 g ai/ha; for pest or weed control at 31 g/ha: 31 g ai/ha; for pest or weed control at 500 g/ha: 500 g ai/ha
Method in brief: (§1)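 Treatment is preemergence as a directed soil spray after planting, or postemergence at the one- to two-leaf stage, with test chemical in a non-phytotoxic solvent mixture plus surfactant. Plants stay in the greenhouse about 10 d before visual injury scoring on a 0 to 100 scale versus untreated controls.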

[2] = tested on: pigweed (Amaranthus retroflexus); details: Amaranthus retroflexus, pre-emergence, 240 h; for pest or weed control at 125 g/ha: 125 g ai/ha; for pest or weed control at 31 g/ha: 31 g ai/ha; for pest or weed control at 500 g/ha: 500 g ai/ha
[3] = tested on: barnyardgrass (Echinochloa crus-galli); details: Echinochloa crus-galli, pre-emergence, 240 h; for pest or weed control at 125 g/ha: 125 g ai/ha; for pest or weed control at 31 g/ha: 31 g ai/ha; for pest or weed control at 500 g/ha: 500 g ai/ha
Method in brief: as §1

[4] = tested on: giant foxtail (Setaria faberii); details: Setaria faberi, pre-emergence, 240 h; for pest or weed control at 125 g/ha: 125 g ai/ha; for pest or weed control at 31 g/ha: 31 g ai/ha; for pest or weed control at 500 g/ha: 500 g ai/ha
Method in brief: as §1

Kochia (Kochia scoparia) = details: Bassia scoparia, pre-emergence, 240 h; for pest or weed control at 125 g/ha: 125 g ai/ha; for pest or weed control at 31 g/ha: 31 g ai/ha; for pest or weed control at 500 g/ha: 500 g ai/ha
Method in brief: as §1

[5] = tested on: ragweed (common ragweed, Ambrosia elatior); details: Ambrosia artemisiifolia, pre-emergence, 240 h; for pest or weed control at 125 g/ha: 125 g ai/ha; for pest or weed control at 31 g/ha: 31 g ai/ha; for pest or weed control at 500 g/ha: 500 g ai/ha
Method in brief: as §1

[6] = preemergence, visual rating after approx. 10 d, 0 to 100 scale where 0 is no effect and 100 is complete control, read-out: Plant response rating, Ryegrass, Italian
[7] = Preemergence, 0 to 100 scale (0 no effect, 100 complete control), read-out: Plant response rating, Ryegrass, Italian
[8] = preemergence, visual rating after approx. 10 d, 0 to 100 scale where 0 is no effect and 100 is complete control, read-out: Plant response rating, Pigweed
[9] = Preemergence, 0 to 100 scale (0 no effect, 100 complete control), read-out: Plant response rating, Pigweed
[10] = preemergence, visual rating after approx. 10 d, 0 to 100 scale where 0 is no effect and 100 is complete control, read-out: Plant response rating, Barnyardgrass
[11] = Preemergence, 0 to 100 scale (0 no effect, 100 complete control), read-out: Plant response rating, Barnyardgrass
[12] = preemergence, visual rating after approx. 10 d, 0 to 100 scale where 0 is no effect and 100 is complete control, read-out: Plant response rating, Foxtail, Giant
[13] = Preemergence, 0 to 100 scale (0 no effect, 100 complete control), read-out: Plant response rating, Foxtail, Giant
[14] = preemergence, visual rating after approx. 10 d, 0 to 100 scale where 0 is no effect and 100 is complete control, read-out: Plant response rating, Kochia
[15] = Preemergence, 0 to 100 scale (0 no effect, 100 complete control), read-out: Plant response rating, Kochia
[16] = preemergence, visual rating after approx. 10 d, 0 to 100 scale where 0 is no effect and 100 is complete control, read-out: Plant response rating, Ragweed
[17] = Preemergence, 0 to 100 scale (0 no effect, 100 complete control), read-out: Plant response rating, Ragweed
[18] = preemergence, 0 to 100 scale where 0 is no effect and 100 is complete control, read-out: Pigweed plant response rating
[19] = preemergence, 0 to 100 scale where 0 is no effect and 100 is complete control, read-out: Barnyardgrass plant response rating
[20] = preemergence, 0 to 100 scale where 0 is no effect and 100 is complete control, read-out: Foxtail, Giant plant response rating
[21] = preemergence, 0 to 100 scale where 0 is no effect and 100 is complete control, read-out: Kochia plant response rating
[22] = preemergence, 0 to 100 scale where 0 is no effect and 100 is complete control, read-out: Ragweed plant response rating
[23] = preemergence, visual injury rating, 0 to 100 scale where 0 is no effect and 100 is complete control, approximately 10 d, read-out: Ryegrass, Italian plant response rating
[24] = preemergence, 0 to 100 scale where 0 is no effect and 100 is complete control, read-out: Ryegrass, Italian plant response rating
[25] = preemergence, visual injury rating, 0 to 100 scale where 0 is no effect and 100 is complete control, approximately 10 d, read-out: Pigweed plant response rating
[26] = preemergence, visual injury rating, 0 to 100 scale where 0 is no effect and 100 is complete control, approximately 10 d, read-out: Barnyardgrass plant response rating
[27] = preemergence, visual injury rating, 0 to 100 scale where 0 is no effect and 100 is complete control, approximately 10 d, read-out: Foxtail, Giant plant response rating
[28] = preemergence, visual injury rating, 0 to 100 scale where 0 is no effect and 100 is complete control, approximately 10 d, read-out: Kochia plant response rating
[29] = preemergence, visual injury rating, 0 to 100 scale where 0 is no effect and 100 is complete control, approximately 10 d, read-out: Ragweed plant response rating
[30] = preemergence, 0 to 100 scale (0 no effect, 100 complete control), read-out: Plant response rating, Ryegrass, Italian
[31] = preemergence, 0 to 100 scale (0 no effect, 100 complete control), read-out: Plant response rating, Pigweed
[32] = preemergence, 0 to 100 scale (0 no effect, 100 complete control), read-out: Plant response rating, Barnyardgrass
[33] = preemergence, 0 to 100 scale (0 no effect, 100 complete control), read-out: Plant response rating, Foxtail, Giant
[34] = preemergence, 0 to 100 scale (0 no effect, 100 complete control), read-out: Plant response rating, Kochia
[35] = preemergence, 0 to 100 scale (0 no effect, 100 complete control), read-out: Plant response rating, Ragweed

Compound | pest or weed control at 125 g/ha [1, 7] [%] | pest or weed control at 500 g/ha [2, 18] [%] | pest or weed control at 125 g/ha [2, 9] [%] | pest or weed control at 500 g/ha [3, 19] [%] | pest or weed control at 125 g/ha [3, 11] [%] | pest or weed control at 500 g/ha [4, 20] [%] | pest or weed control at 125 g/ha [4, 13] [%] | pest or weed control at 500 g/ha (Kochia (Kochia scoparia); [21]) [%] | pest or weed control at 125 g/ha (Kochia (Kochia scoparia); [15]) [%] | pest or weed control at 500 g/ha [5, 22] [%] | pest or weed control at 125 g/ha [5, 17] [%] | pest or weed control at 125 g/ha [1, 23] [%] | pest or weed control at 500 g/ha [1, 24] [%] | pest or weed control at 125 g/ha [2, 25] [%] | pest or weed control at 125 g/ha [3, 26] [%] | pest or weed control at 125 g/ha [4, 27] [%] | pest or weed control at 125 g/ha (Kochia (Kochia scoparia); [28]) [%] | pest or weed control at 125 g/ha [5, 29] [%] | further results
CSc1ccccc1NC(=O)[C@H]1C(=O)N(C)C[C@@H]1c1ccc(C(F)F)cc1 [Compound 799] | – | – | – | – | – | – | – | – | – | – | – | – | – | – | – | – | – | – | pest or weed control at 125 g/ha [1, 6]: 0%; pest or weed control at 31 g/ha [1, 7]: 0%; pest or weed control at 125 g/ha [2, 8]: 40%; pest or weed control at 31 g/ha [2, 9]: 30%; pest or weed control at 125 g/ha [3, 10]: 40%; pest or weed control at 31 g/ha [3, 11]: 0%; pest or weed control at 125 g/ha [4, 12]: 90%; pest or weed control at 31 g/ha [4, 13]: 70%; pest or weed control at 125 g/ha (Kochia (Kochia scoparia); [14]): 40%; pest or weed control at 31 g/ha (Kochia (Kochia scoparia); [15]): 0%; pest or weed control at 125 g/ha [5, 16]: 0%; pest or weed control at 31 g/ha [5, 17]: 0%
CN1C[C@H](c2cccc(C(C)(F)F)c2)[C@@H](C(=O)Nc2ccccc2S(C)(=O)=O)C1=O [Compound 1318] | 40 | 80 | 70 | 90 | 90 | 90 | 90 | 80 | 70 | 90 | 0 | – | – | – | – | – | – | – | –
Cc1c(F)cccc1NC(=O)[C@H]1C(=O)NC[C@@H]1c1cccc2c1OC(F)(F)O2 [Compound 1305] | – | 0 | – | 90 | – | 90 | – | 0 | – | 0 | – | 0 | 0 | 0 | 70 | 90 | 0 | 0 | –
CN1CC[C@H](c2ccc(C(F)(F)F)cc2)[C@@H](C(=O)Nc2cccc(F)c2F)C1=O [Compound 1225] | – | 50 | – | 90 | – | 90 | – | 70 | – | 60 | – | 20 | 40 | 30 | 90 | 90 | 60 | 50 | –
CN1CC[C@H](c2cccc(OC(F)(F)F)c2)[C@@H](C(=O)Nc2cccc(F)c2F)C1=O [Compound 807] | – | – | – | – | – | – | – | – | – | – | – | – | – | – | – | – | – | – | pest or weed control at 125 g/ha [1, 6]: 70%; pest or weed control at 31 g/ha [1, 7]: 20%; pest or weed control at 125 g/ha [2, 8]: 40%; pest or weed control at 31 g/ha [2, 9]: 0%; pest or weed control at 125 g/ha [3, 10]: 100%; pest or weed control at 31 g/ha [3, 11]: 100%; pest or weed control at 125 g/ha [4, 12]: 100%; pest or weed control at 31 g/ha [4, 13]: 100%; pest or weed control at 125 g/ha (Kochia (Kochia scoparia); [14]): 50%; pest or weed control at 31 g/ha (Kochia (Kochia scoparia); [15]): 0%; pest or weed control at 125 g/ha [5, 16]: 0%; pest or weed control at 31 g/ha [5, 17]: 0%
C=CN1C[C@H](c2ccc(C)c(F)c2)[C@@H](C(=O)Nc2cccc(F)c2F)C1=O (racemic) [Compound 1332] | 0 | – | 0 | – | 70 | – | 80 | – | 0 | – | 0 | – | – | – | – | – | – | – | pest or weed control at 500 g/ha [1, 30]: 0%; pest or weed control at 500 g/ha [2, 31]: 0%; pest or weed control at 500 g/ha [3, 32]: 90%; pest or weed control at 500 g/ha [4, 33]: 90%; pest or weed control at 500 g/ha (Kochia (Kochia scoparia); [34]): 0%; pest or weed control at 500 g/ha [5, 35]: 0%
COc1cc(C(F)(F)F)ccc1[C@H]1CN(C)C(=O)[C@@H]1C(=O)Nc1cccc(F)c1C [Compound 1205] | – | 30 | – | 90 | – | 100 | – | 30 | – | 0 | – | 40 | 70 | 0 | 90 | 100 | 30 | 0 | –
Cc1ccc([C@H]2CN(C)C(=O)[C@@H]2C(=O)Nc2ccccc2F)cc1Cl [Compound 1384] | 30 | – | 30 | – | 90 | – | 90 | – | 30 | – | 0 | – | – | – | – | – | – | – | pest or weed control at 500 g/ha [1, 30]: 70%; pest or weed control at 500 g/ha [2, 31]: 30%; pest or weed control at 500 g/ha [3, 32]: 90%; pest or weed control at 500 g/ha [4, 33]: 90%; pest or weed control at 500 g/ha (Kochia (Kochia scoparia); [34]): 70%; pest or weed control at 500 g/ha [5, 35]: 0%
